Measured values from patent publication US20170081724A1, “METHOD AND KITS FOR DETERMINING SENSITIVITY TO CANCER TREATMENT” (Dana-Farber Cancer Institute, Inc., priority 2014, published 2017).

Test system: ERCC2-deficient fibroblast cell line (GM08207) expressing GFP, WT ERCC2 or mutant ERCC2
Assay: Cisplatin sensitivity assay (CellTiter-Glo survival, 120 hours)
Type: cell-based, human
Description: The expression plasmids harboring WT ERCC2, GFP (negative control), or mutant ERCC2s were expanded in E. coli TOP10 cells (Invitrogen) and purified using an anion exchange kit (Qiagen). Lentiviruses were propagated in 293T cells by cotransfection of the expression plasmid with plasmids encoding viral packaging and envelope proteins. Unless otherwise noted, all human cell lines were cultured in Dulbecco's Modified Eagle's Medium (Invitrogen) supplemented with 10% fetal bovine serum (Sigma) and 1% L-glutamine and grown at 37° C. and 5% CO2. The 293T cell supernatants containing virus were collected after 48 hours, filtered twice (0.45 μm syringe filter, Millipore), then added directly to growing cultures of an SV40-transformed pseudodiploid ERCC2-deficient fibroblast cell line derived from an XP patient of genetic complementation group D (GM08207; Coriell Institute). Polybrene® (Sigma) was added to a final concentration of 8 μg/ml to increase the efficiency of infection. […]
Cells were transferred to 96-well plates at a density of 500 cells per well. […] After 120 hours, CellTiter-Glo reagent (Promega) was added to the wells and the plates were scanned using a luminescence microplate reader (BioTek). […] IC50 concentrations were calculated using a four parameter sigmoidal model and plots were generated using Prism (GraphPad). […]

SMILES: N.N.[Cl][Pt][Cl] [cisplatin]
- cisplatin IC50 (WT ERCC2 complemented cell line compared with ERCC2-deficient parent cell line, P=0.0003, ANOVA): significantly higher
- cisplatin IC50 (each mutant ERCC2 cell line (five mutants) compared with parent ERCC2-deficient cell line): not significantly different
